# From patent US5130119A, “Method of using fluorosubstituted benzene derivatives in F-NMR imaging” (Schering Aktiengesellschaft, priority 1988, dated 1992)
# Values joined by “and” are separate entries in the source; they are usually repeats but may differ in a detail not shown here. Equal entries are not always repeated.
# Legend:
# [1] = intravenous acute tolerability (LD50) on the mouse; details: in vivo
# Procedure: Thus, for example, an intravenous acute tolerability (LD50) of 4 mmol/kg of body weight was determined on the mouse for 5-[N-(4-fluoro-2-trifluoromethylphenyl)sulfamoyl)-isophthalic acid (Example 13).
# [2] = system: rat (whole animal; bladder area); experiment: in vivo 19F NMR spectroscopic pH determination; parameters: species or system female rats of the Wistar-Han-Schering strain (SPF); details: 0.5 mmol/kg i.v.
# Procedure: Performance of in vivo ^19 F NMR spectroscopic pH determinations with 5-[N-(4-fluoro-2-trifluoromethylphenyl)sulfamoyl]-isophthalic acid (Example 13)
# An aqueous solution of the fluorocompound is produced with a concentration of 0.4 mol/1. The pH of the aqueous solution is adjusted with NaOH to 7.2.
# The NMR spectra are measured with an animal experimental nuclear spin tomograph (General Electric), which operates with a field strength of 2 tesla (corresponds to an RF resonance frequency of 80.5 MHz). The signals can be picked up by the whole-body coil (animal size) or surface coils.
# The experiments are performed with female rats of the Wistar-Han-Schering strain (SPF) with a body weight of 200 g. The animal is anesthetized by an intramuscular injection of Rompun/Ketavet (1:1, 1 ml/kg of body weight). Then a butterfly needle is placed in the animal in one of the tail veins. The animal is placed in a whole-body coil and the latter is tuned to the fluororesonance frequency. The spectrum of the entire animal is developed with this coil, i.e., no volume-selective spectroscopy is performed.
# The fluorinated compound is applied intravenously within 30 seconds in a dose of 0.5 mmol/kg and an F spectrum is registered within 4 minutes.
# After measurement of the total animal, the animal was removed from the coil and positioned on a surface coil so that the bladder area was picked up by the coil. […] The intense signals originate from the fluorocompound in the bladder. The chemical shift in the aromatic range is identical with the deep-field signal of the aromatic range in FIG. 2.
# [3] = system: kidney, bladder and ureter; experiment: 19F imaging; assay type: in vivo, rat
# From the text: FIG. 4 relates to Example 50 and is the projection ^19 F image of the kidney, bladder, and ureters of a rat administered 0.75 mmol/kg of 5-[N-4-fluoro-2-trifluoromethylphenyl)sulfamoyl] isophthalic acid and 0.2 mmol/kg GdDTPA.
# Production of the solution of the fluorinated substance as well as preparation of the animal take place as in taking the ^19 F NMR spectra.
# The test animal is placed in the measuring coil and the fluorinated compound is applied in a dose of 0.75 mmol/kg of body weight by the tail vein in 1 minute. Then an intravenous application takes place, also by needle in the tail vein, of GdDTPA in a dose of 0.2 mmol/kg. Making of the image takes place with a projection spin echo sequence and the parameters: TR=28 msec (repetition rate), TE=4 msec (echo time), NEX=256 (number of averagings); the total measuring time is 15 minutes.
smiles,measurement,setting,value
"O=C(O)c1cc(C(=O)O)cc(S(=O)(=O)Nc2ccc(F)cc2C(F)(F)F)c1 [Example 13, 5-[N-(4-fluoro-2-trifluoromethylphenyl)sulfamoyl]-isophthalic acid]",LD50,[1],4000 µmol/kg
same,pH calculated from the chemical shifts (2 environments),"[2]; 5 minutes after application, whole rat, 2 tesla, CF3 reference signal",6.5 and 7.7
same,19F signal from the alkaline range,[2]; 50 minutes after application,almost disappeared
same,19F signal in the acid range,[2]; 50 minutes after application,split into several signals
same,location of lowest pH in the animal,"[2]; bladder area, surface coil, 20 minutes measuring time",the lowest (most acid) pH is in the bladder
same,excretion,"[2]; bladder area, surface coil, 70 minutes after application, 20 minutes measuring time",renally excreted
same,distribution at the beginning of the experiment,[2]; whole rat,found only in the blood
same,distribution 50 minutes after application,"[2]; whole rat, 50 minutes",distributed extravascularly
same,excretion (imaging),[3]; 0.75 mmol/kg i.v. plus GdDTPA 0.2 mmol/kg,renally excreted
same,19F image,"[3]; 0.75 mmol/kg i.v. plus GdDTPA 0.2 mmol/kg i.v., projection spin echo, 15 minutes","shows the kidney, bladder and ureter"
same,"F concentration in kidney, bladder and ureter","[3]; 0.75 mmol/kg i.v., reabsorption of water in these areas",high F concentration
